Measurements reported in patent US20230286947A1, “COMPLEMENT FACTOR B INHIBITOR, AND PHARMACEUTICAL COMPOSITION, PREPARATION METHOD AND USE THEREOF” (SHANGHAI MEIYUE BIOTECH DEVELOPMENT CO. LTD, priority 2020, published 2023).
Values belong to the molecule of their own block, whether it stands above or below them.

Columns and labels:
[1] = target: T1, complement factor B in human serum (Homo sapiens, UniProt P00751); assay: Complement hemolytic activity assay (rabbit erythrocytes, normal human serum); assay type: cell-based; details: for IC50: rabbit erythrocytes, normal human serum, 37° C., read-out: Hemolysis IC50
T1 construct: from tissue; host or cells: normal human serum (NHS)
Experimental: The hemolysis experiment was carried out by referring to the description in Xuan Yuan et al., Haematologica. […] Prior to the experiment, the optimal concentration of normal human serum (NHS) required to achieve 100% lysis of rabbit erythrocytes (REs) was obtained by titration testing. […] REs (collected from healthy Japanese big-ear white rabbits) freshly suspended in a GVBO buffer comprising 10 mM Mg-EGTA were added to a final concentration of 1×10^8 cells/mL and incubated at 37° C. for 30 min. A GVBO buffer comprising 10 mM Mg-EGTA and comprising NHS and RE but no test compound was used as a positive control group (100% lysis). A GVBO buffer comprising 10 mM Mg-EGTA and comprising inactivated NHS (heated at 56° C. for 30 min or at 65° C. for 5 min) and RE but no test compound was used as a negative control group (0% lysis). The samples were centrifuged at 2000 g for 5 min, and the supernatant was collected. Absorbance at 415 nm (A415) was measured using a microplate reader (Molecular Devices, SpectraMax i3X). IC50 values were calculated from percent hemolysis as a function of test compound concentration by non-linear regression.

Complement factor B = Complement factor B (Homo sapiens, UniProt P00751); assay: Optical surface plasmon resonance (SPR) binding capacity assay; details: for Rmax (RU): test compound 500 μM, 25° C., 1:1 binding model; for binding capacity to the target protein compared with the control compound: at a concentration of 500 μM
Experimental: An SPR experiment was carried out at 25° C. In the experiment, a PBS buffer supplemented with 0.05% (v/v) P20 and 5% DMSO was used as a running buffer, and the analytical instrument Biacore 8K of GE Healthcare was used. A CM7 ship (GE Healthcare) was activated with 400 mM EDC and 100 mM NHS at a flow rate of 30 μL/min for 420 s. […] Then the assay chip was treated with 1 M ethanolamine hydrochloride at a flow rate of 10 μL/min for 300 s for chip blocking. The concentration of the test compound was 500 μM, the binding time was 120 s, and the dissociation time was 300 s. Data analysis was performed using a 1:1 binding model (Biacore Insight Evalution Software, Version 2.0.15.12933).

[2] = Liver microsomal stability experiment (rat); assay type: in vitro ADME; details: for half-life at 1 µM: SD, pH 7.4, NADPH, read-out: MMS (rat) T1/2; for half-life at 1 µM / MMS (rat) Remaining (T = 90 min): rat liver microsomes; for liver microsomal stability (in words): statement covers rat, monkey and human liver microsomes (Table 3)
Experimental: (§1) A 0.1 M solution of potassium dihydrogen phosphate in distilled water (comprising 1 mM ethylenediaminetetraacetic acid) was taken. Then the pH was adjusted to 7.4 with the 0.1 M solution of dipotassium phosphate in distilled water (comprising 1 mM ethylenediaminetetraacetic acid).
Rat: SD Rat Liver Microsomes, Cat. No.: LM-DS-02M, RILD Research Institute for Liver Diseases (Shanghai) Co. Ltd.
(§2) A 10 mM solution of each of the control compound and test compounds was prepared in DMSO. Then 10 μL of the solution was added to 190 μL of acetonitrile to form a 0.5 mM mother liquor. 1.5 μL of the 0.5 mM compound mother liquor was measured out, and […] of 20 mg/mL liver microsomes and 479.75 μL of the buffer were added. (The actual preparation amount can be adjusted according to use).
(§3) A 10 mg/mL solution of reduced coenzyme II (NADPH) was prepared in the buffer. A 96-well plate was placed on ice. Wells corresponding to different time points (0, 10, 30, 60 and 90 min, Non-NADPH) were set for each compound. 30 μL of the working solution was added to each well. For 0 min wells, 155 μL of glacial acetonitrile solution (the internal standard concentration was 1 μM) was added first, and after the mixtures were well mixed using a pipet, 15 μL of NADPH (10 mg/mL) was added. Before the reactions were started, the 96-well plate was pre-incubated on a microplate shaker at 37° C. for 5 min. Then 15 μL of NADPH (10 mg/mL) was added to each well to start the metabolic reactions. After the reactions were carried out for 10, 30, 60 and 90 min, 155 μL of glacial acetonitrile solution (the internal standard concentration was 1 μM) was added to the corresponding wells to terminate the reactions. After 90 min, the reaction in the Non-NADPH system was terminated by adding 155 μL of glacial acetonitrile solution (the internal standard concentration was 1 μM). After the reaction was completed, the 96-well plate was shaken on a microplate shaker (600 rpm) for 10 min and then centrifuged at 4° C. at 4000 g for 15 min. 50 μL of the supernatant was added to a new 2 mL 96-well plate, and 300 μL of deionized water was added. The mixture was analyzed on an AB SCIEX ExionLC-Triple Quad 5500 high performance liquid chromatograph-mass spectrometer. The Analyst 1.6.3 software was used.

[3] = Liver microsomal stability experiment (monkey); assay type: in vitro ADME; details: cynomolgus monkey liver microsomes; for half-life at 1 µM: pH 7.4, NADPH, read-out: MMS (monkey) T1/2
Experimental: as §1
Monkey: Cynomolgus Monkey Liver Microsomes, Cat. No.: LM-SXH-02M, RILD Research Institute for Liver Diseases (Shanghai) Co. Ltd.
as §2, §3

[4] = Liver microsomal stability experiment (human); assay type: in vitro ADME; details: for MMS (human) Remaining (T = 90 min): human liver microsomes; for half-life at 1 µM: pooled liver microsomes, pH 7.4, NADPH, read-out: MMS (human) T1/2
Experimental: as §1
Human – Pooled Human Liver Microsomes (Mongolian), Cat. No.: LM-R-02M, RILD Research Institute for Liver Diseases (Shanghai) Co. Ltd.
as §2, §3

[5] = PK experiment of single intragastric administration to rats; assay type: in vivo; details: male, Wistar Han, plasma, po, rat, 3 mg/kg, mean
Experimental: Six- to nine-week-old male Wistar han rats (from Shanghai Sippe-Bk Lab Animal Co., Ltd.) were fasted overnight. Each group consisted of 3 rats, and they were given the control compound, the compound of Example 5 and the compound of Example 6, respectively, by intragastric administration at 3 mg/kg at a volume of 10 mL/kg. 0.2 mL of blood was collected from the jugular vein at each time point, anticoagulated with EDTA-K2 and immediately centrifuged at 4000 rpm at 4° C. for 5 min. The supeatant was collected. The samples were cryopreserved in a freezer at −80° C. before analysis. Time points of blood collection: before administration, 5 min 15 min, 30 min, 1 h, 2 h, 4 h, 7 h and 24 h. […] After blood collection at all of the time points was completed, the animals were euthanized. The plasma samples were analyzed by LC-MS/MS. The data were used to calculate kinetic parameters (Tmax, Cmax, T½ and AUC) in the WinNonlin software.

[6] = test system: Streptococcus-induced rheumatoid arthritis; assay: Streptococcus-induced rheumatoid arthritis (RA) model in rats; assay type: in vivo, Lewis rats; details: 15 mpk intragastric daily for 25 days, FIG. 3
Experimental: In the experiment, six- to nine-week-old female Lewis rats (Beijing Vital River) were used. Each group consisted of 6 rats, and they were given the cell wall peptidoglycan complexes of Streptococcus and several other species of bacteria by intraperitoneal administration (2-3 mg per rat) on D1, and were given the control compound (15 mpk) and Example 5 (15 mpk) by intragastric administration daily for 25 consecutive days. The arthritis in rats was scored in different phases. The scoring criteria are as follows: Scoring according to the degree of lesion (redness and swelling) was performed on a scale of 0-4 points, with a maximum score of 4 for each limb and a total maximum score of 16 for each animal's limbs. The scoring criteria are as follows: 0 points: no redness and swelling; 1 point: 1-2 red and swollen interphalangeal joints; 2 points: 3-4 red and swollen interphalangeal joints; 3 points: more than 4 red and swollen interphalangeal joints; 4 points: severe redness and swelling in toes or fingers to ankle joints or wrist joints.

[7] = PK/PD experiment of single intragastric administration to cynomolgus monkeys: plasma concentration; assay type: in vivo; details: same dose (3 & 30 mpk), FIG. 1
Experimental: Cynomolgus monkeys were used. Each group consisted of 3 cynomolgus monkeys, and they were given the control compound and the compound of Example 5 (3 & 30 mpk) by intragastric administration. Blood was collected at different time points and analyzed for drug concentration and complement activity. The drug concentration in plasma was determined by LC-MS/MS. The complement activity in serum was determined using a wieslab assay (Svar Life Science AB, COMPL AP330 RUO) kit, Normal Human Serum (Complement Technology, NHS).

T1 sequence (P00751 26-764): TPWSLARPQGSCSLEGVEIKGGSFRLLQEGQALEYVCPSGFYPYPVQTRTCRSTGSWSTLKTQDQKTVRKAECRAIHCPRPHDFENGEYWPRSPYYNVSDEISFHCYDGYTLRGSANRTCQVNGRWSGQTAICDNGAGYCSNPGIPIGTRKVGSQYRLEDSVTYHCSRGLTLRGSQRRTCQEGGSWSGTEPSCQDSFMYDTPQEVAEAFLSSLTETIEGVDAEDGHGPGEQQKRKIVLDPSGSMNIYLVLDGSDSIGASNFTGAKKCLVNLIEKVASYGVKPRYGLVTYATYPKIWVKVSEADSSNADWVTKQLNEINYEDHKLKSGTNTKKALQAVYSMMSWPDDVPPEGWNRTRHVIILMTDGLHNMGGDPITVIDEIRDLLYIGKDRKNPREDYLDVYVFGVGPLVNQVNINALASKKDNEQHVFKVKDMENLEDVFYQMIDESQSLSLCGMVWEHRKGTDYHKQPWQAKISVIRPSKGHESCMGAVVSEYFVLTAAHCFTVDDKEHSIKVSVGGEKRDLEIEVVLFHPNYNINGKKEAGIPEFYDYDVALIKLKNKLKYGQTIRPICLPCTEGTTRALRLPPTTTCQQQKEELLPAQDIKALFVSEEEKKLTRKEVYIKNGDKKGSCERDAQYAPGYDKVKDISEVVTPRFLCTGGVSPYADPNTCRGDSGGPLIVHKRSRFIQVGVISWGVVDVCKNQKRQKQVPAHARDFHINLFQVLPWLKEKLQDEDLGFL
Sequence of Complement factor B (P00751 26-764): as above

Compound: COc1cc(C)c2[nH]ccc2c1CN1CCC(C)(F)CC1c1ccc(C(=O)O)cc1 (stereo not shown) [Example 17]
IC50 [1]: 0.391 µM

Compound: COc1cc(C)c2[nH]ccc2c1CN1CC[C@H](OCC2CC2(F)F)C[C@H]1c1ccc(C(=O)O)cc1 (stereo partly shown) [Example 25]
IC50 [1]: 0.234 µM

Rmax (RU) (Complement factor B): 29.1 RU
half-life at 1 µM [2]: 3.68 h
MMS (rat) Remaining (T = 90 min) [2]: 72.23%
MMS (monkey) Remaining (T = 90 min) [3]: 80.68%
half-life at 1 µM [3]: 6.07 h
MMS (human) Remaining (T = 90 min) [4]: 84.79%
half-life at 1 µM [4]: 6.94 h
Compound: COc1cc(C)c2[nH]ccc2c1CN1CC[C@H](OC2CCC2)C[C@H]1c1ccc(C(=O)O)cc1 [Example 4]
IC50 [1]: 0.28 µM
liver microsomal stability (in words) [2]: more significant liver microsomal stability

Rmax (RU) (Complement factor B): 21.6 RU
Compound: COc1cc(C)c2[nH]ccc2c1CN1CC[C@H](OC(F)(F)F)C[C@H]1c1ccc(C(=O)O)cc1 [Example 7]
IC50 [1]: 0.228 µM

Compound: COc1cc(C)c2[nH]ccc2c1CN1CCC2CC2[C@H]1c1ccc(C(=O)O)cc1 (stereo partly shown) [Example 22]
IC50 [1]: 0.184 µM

Compound: COc1cc(C)c2[nH]ccc2c1CN1CC[C@H](OCC2CC2)C[C@H]1c1ccc(-c2nn[nH]n2)cc1 [Example 26]
IC50 [1]: 0.319 µM

Compound: CCO[C@H]1CCN(Cc2c(OC)cc(C)c3[nH]ccc23)[C@H](c2ccc(C(=O)O)cc2)C1 [Control compound, reference compound]
AUC(0-inf) [5]: 2730 ng·h/mL
AUC(0-t) [5]: 2530 ng·h/mL
Cmax [5]: 784 ng/mL
Tmax [5]: 0.33 h
half-life [5]: 2.42 h
arthritis score [6]: can improve the arthritis score

Compound: COc1cc(C)c2[nH]ccc2c1CN1CC[C@H](OC2CC2)C[C@H]1c1ccc(C(=O)O)cc1 [Example 3]
IC50 [1]: 0.216 µM

Compound: COc1cc(C)c2[nH]ccc2c1CN1CC[C@H](OC2CC(F)(F)C2)C[C@H]1c1ccc(C(=O)O)cc1 [Example 16]
IC50 [1]: 0.188 µM

Rmax (RU) (Complement factor B): 106.5 RU
half-life at 1 µM [2]: 0.986 h
MMS (rat) Remaining (T = 90 min) [2]: 33.55%
MMS (monkey) Remaining (T = 90 min) [3]: 60.37%
half-life at 1 µM [3]: 2.17 h
MMS (human) Remaining (T = 90 min) [4]: 74.57%
half-life at 1 µM [4]: 3.96 h
AUC(0-inf) [5]: 2260 ng·h/mL
AUC(0-t) [5]: 2190 ng·h/mL
Cmax [5]: 1180 ng/mL
Tmax [5]: 0.25 h
half-life [5]: 2.28 h
Compound: COc1cc(C)c2[nH]ccc2c1CN1CC[C@H](OCC2CCC2)C[C@H]1c1ccc(C(=O)O)cc1 [Example 6]
binding capacity to the target protein compared with the control compound (Complement factor B): significantly better than the control compound
IC50 [1]: 0.217 µM
liver microsomal stability (in words) [2]: more significant liver microsomal stability

Rmax (RU) (Complement factor B): 274.2 RU
half-life at 1 µM [2]: 9.13 h
MMS (rat) Remaining (T = 90 min) [2]: 89.14%
MMS (monkey) Remaining (T = 90 min) [3]: 93.32%
half-life at 1 µM [3]: 12.8 h
MMS (human) Remaining (T = 90 min) [4]: 91.04%
half-life at 1 µM [4]: 11.2 h
AUC(0-inf) [5]: 3280 ng·h/mL
AUC(0-t) [5]: 3120 ng·h/mL
Cmax [5]: 1920 ng/mL
Tmax [5]: 0.25 h
half-life [5]: 1.58 h
Compound: COc1cc(C)c2[nH]ccc2c1CN1CC[C@H](OCC2CC2)C[C@H]1c1ccc(C(=O)O)cc1 [Example 5]
binding capacity to the target protein compared with the control compound (Complement factor B): significantly better than the control compound
inhibitory activity against complement factor B in human serum compared with the control compound ([1]; hemolysis of rabbit erythrocytes): significantly better inhibitory activity against complement factor B in human serum than the control compound
IC50 [1]: 0.0879 µM
liver microsomal stability (in words) [2]: more significant liver microsomal stability
mean plasma concentration compared with the control compound [7]: significantly higher mean plasma concentration than the control compound
arthritis score [6]: can improve the arthritis score
effect on arthritis score compared with the control compound [6]: significantly better effect than the control compound

Rmax (RU) (Complement factor B): 23.3 RU
Compound: COc1cc(C)c2[nH]ccc2c1CN1CCC(C(F)(F)F)CC1c1ccc(C(=O)O)cc1 (stereo not shown) [Example 9]
IC50 [1]: 0.725 µM

Rmax (RU) (Complement factor B): 47.7 RU
Compound: COc1cc(C)c2[nH]ccc2c1CN1CCC2(CC1c1ccc(C(=O)O)cc1)CC2(F)F (stereo not shown) [Example 8]
IC50 [1]: 0.358 µM

Compound: CCOC1CC(c2ccc(C(=O)O)cc2)N(Cc2c(OC)cc(C)c3[nH]ccc23)C2CC12 (stereo not shown) [Example 23]
IC50 [1]: 0.853 µM

Rmax (RU) (Complement factor B): 30.7 RU
Compound: COc1cc(C)c2[nH]ccc2c1CN1CCC(C(F)F)CC1c1ccc(C(=O)O)cc1 (stereo not shown) [Example 10]
IC50 [1]: 0.611 µM
